Experimental data taken from US20260132132A1, “3A,4,5,6-TETRAHYDRO-1 H-PYRAZOLO[3,4-C]PYRIDIN-7(7AH)-ONE DERIVATIVES AS FACTOR XIIA INHIBITORS” (KALVISTA PHARMACEUTICALS LIMITED, priority 2022, published 2026).
pIC50: −log10 of the molar value.

Each molecule was assayed against T1, Human Factor XIIa (hFXIIa) (Homo sapiens, UniProt P00748) (assay: Determination of Human Factor XIIa (hFXIIa) inhibition, fluorogenic substrate IC50 assay). Conditions: fluorogenic substrate H-DPro-Phe-Arg-AFC at Km, 25° C., read-out: Human FXIIa IC50.
T1 construct: purchased Enzyme Research Laboratories
T1 sequence (P00748 373-615 limits assumed): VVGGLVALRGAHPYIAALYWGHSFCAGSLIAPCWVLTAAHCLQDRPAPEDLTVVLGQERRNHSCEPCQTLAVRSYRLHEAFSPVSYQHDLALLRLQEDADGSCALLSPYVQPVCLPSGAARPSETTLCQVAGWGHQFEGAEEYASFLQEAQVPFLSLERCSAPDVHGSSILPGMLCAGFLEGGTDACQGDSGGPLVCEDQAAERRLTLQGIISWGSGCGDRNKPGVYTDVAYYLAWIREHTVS
T1 sequence (P00748 20-372 partner limits assumed): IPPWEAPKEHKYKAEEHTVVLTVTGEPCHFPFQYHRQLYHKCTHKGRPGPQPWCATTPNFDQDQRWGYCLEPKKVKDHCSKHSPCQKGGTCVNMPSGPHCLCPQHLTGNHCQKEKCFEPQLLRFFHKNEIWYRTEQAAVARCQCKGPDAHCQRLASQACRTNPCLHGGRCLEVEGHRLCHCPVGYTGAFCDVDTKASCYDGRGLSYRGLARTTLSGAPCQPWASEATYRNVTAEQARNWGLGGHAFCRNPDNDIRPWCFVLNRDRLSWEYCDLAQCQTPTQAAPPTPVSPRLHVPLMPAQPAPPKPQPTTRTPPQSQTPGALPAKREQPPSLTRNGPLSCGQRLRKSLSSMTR
Assay type: biochemical
Description: Determination of Human Factor XIIa (hFXIIa) inhibition
The Km for the cleavage of the substrate by hFXIIa was determined by standard transformation of the Michaelis-Menten equation, with subsequent inhibition assays performed at substrate Km concentration.
Molecule `Cc1ccncc1CNC(=O)n1nc(-c2cccc(Cl)c2)c2c1CCN(c1ccc3c(c1)CN(CCO)CC3)C2=O` [Example 4003, 3-(3-chlorophenyl)-5-(2-(2-hydroxyethyl)-1,2,3,4-tetrahydroisoquinolin-7-yl)-N-((4-methylpyridin-3-yl)methyl)-4-oxo-4,5,6,7-tetrahydro-1H-pyrazolo[4,3-c]pyridine-1-carboxamide] has a pIC50 of 6.52 to 7.00.
`COCc1nn(-c2cccc(Cl)c2)c2c1CCN(c1ccc3c(c1)C(=O)N(C)CC3)C2=O` [Example 1184, 7-(1-(3-chlorophenyl)-3-(methoxymethyl)-7-oxo-1,4,5,7-tetrahydro-6H-pyrazolo[3,4-c]pyridin-6-yl)-2-methyl-3,4-dihydroisoquinolin-1(2H)-one] gave a pIC50 of 5.52 to 6.00.
`O=C(NCC1CC1)c1nn(-c2cccc(Cl)c2)c2c1CCN(c1ccc3c(c1)CN(Cc1ccn[nH]1)CC3)C2=O` [Example 1104, 6-(2-((1H-pyrazol-5-yl)methyl)-1,2,3,4-tetrahydroisoquinolin-7-yl)-1-(3-chlorophenyl)-N-(cyclopropylmethyl)-7-oxo-4,5,6,7-tetrahydro-1H-pyrazolo[3,4-c]pyridine-3-carboxamide] was tested, and the pIC50 was 6.00 to 6.52.
`CCOC(=O)c1nn(-c2cccc(Cl)c2)c2c1CCN(c1ccc3c(c1)C(=O)N(C)CC3)C2=O` [Example 1284, ethyl 1-(3-chlorophenyl)-6-(2-methyl-1-oxo-1,2,3,4-tetrahydroisoquinolin-7-yl)-7-oxo-4,5,6,7-tetrahydro-1H-pyrazolo[3,4-c]pyridine-3-carboxylate] showed a pIC50 of 6.00 to 6.52.
Molecule `CC1(C)OCCC1NC(=O)c1nn(-c2cccc(Cl)c2)c2c1CCN(c1cccc(CN3CCCCC3)c1)C2=O` (centres unmarked) [Example 1164, 1-(3-chlorophenyl)-N-(2,2-dimethyltetrahydrofuran-3-yl)-7-oxo-6-(3-(piperidin-1-ylmethyl)phenyl)-4,5,6,7-tetrahydro-1H-pyrazolo[3,4-c]pyridine-3-carboxamide] has a pIC50 of 6.00 to 6.52.
Molecule `Cc1ccncc1CNC(=O)c1nn(-c2cccc(Cl)c2)c2c1CCN(c1cnc3c(c1)C(=O)N(C)CC3)C2=O` [Example 1302, 1-(3-chlorophenyl)-6-(6-methyl-5-oxo-5,6,7,8-tetrahydro-1,6-naphthyridin-3-yl)-N-((4-methylpyridin-3-yl)methyl)-7-oxo-4,5,6,7-tetrahydro-1H-pyrazolo[3,4-c]pyridine-3-carboxamide] has a pIC50 of 6.00 to 6.52.
Work on `CN1CCc2ccc(N3CCc4c(C(=O)NCC5CC5)nn(-c5cccc(Cl)c5)c4C3=O)nc2C1` [Example 1034, 1-(3-Chlorophenyl)-N-(cyclopropylmethyl)-6-(7-methyl-5,6,7,8-tetrahydro-1,7-naphthyridin-2-yl)-7-oxo-4,5,6,7-tetrahydro-1H-pyrazolo[3,4-c]pyridine-3-carboxamide] yielded a pIC50 of 6.00 to 6.52.
`C[C@@H](CO)N1CCc2ccc(N3CCc4c(C(=O)NCC5CC5)nn(-c5cccc(Cl)c5)c4C3=O)cc2C1` [Example 1113, (S)-1-(3-chlorophenyl)-N-(cyclopropylmethyl)-6-(2-(1-hydroxypropan-2-yl)-1,2,3,4-tetrahydroisoquinolin-7-yl)-7-oxo-4,5,6,7-tetrahydro-1H-pyrazolo[3,4-c]pyridine-3-carboxamide] gave a pIC50 of 6.00 to 6.52.
Work on `O=C(NCC1CC1)c1nn(-c2cccc(Cl)c2)c2c1CCN(c1ccc3c(c1)CN(C1CCOC1)CC3)C2=O` (centres unmarked) [Example 1115, 1-(3-chlorophenyl)-N-(cyclopropylmethyl)-7-oxo-6-(2-(tetrahydrofuran-3-yl)-1,2,3,4-tetrahydroisoquinolin-7-yl)-4,5,6,7-tetrahydro-1H-pyrazolo[3,4-c]pyridine-3-carboxamide] yielded a pIC50 of 6.00 to 6.52.
`O=C(NCc1ncccc1Cl)c1nn(-c2cccc(Cl)c2)c2c1CCN(c1ccc3c(c1)CN(CCO)CC3)C2=O` [Example 1170, 1-(3-chlorophenyl)-N-((3-chloropyridin-2-yl)methyl)-6-(2-(2-hydroxyethyl)-1,2,3,4-tetrahydroisoquinolin-7-yl)-7-oxo-4,5,6,7-tetrahydro-1H-pyrazolo[3,4-c]pyridine-3-carboxamide] gave a pIC50 of 7.00 to 8.00.
For `Cc1cc(N2CCc3c(C(=O)NCC4CC4)nn(-c4cccc(Cl)c4)c3C2=O)cc2c1CCN(C)C2` [Example 1048, 1-(3-Chlorophenyl)-N-(cyclopropylmethyl)-6-(2,5-dimethyl-1,2,3,4-tetrahydroisoquinolin-7-yl)-7-oxo-4,5,6,7-tetrahydro-1H-pyrazolo[3,4-c]pyridine-3-carboxamide], the pIC50 was 6.00 to 6.52.
In the case of `O=C(NCC1CC1)c1nn(-c2cccc(Cl)c2)c2c1CCN(c1ccc3c(c1)CN(CCO)CC3(F)F)C2=O` [Example 1300, 1-(3-chlorophenyl)-N-(cyclopropylmethyl)-6-(4,4-difluoro-2-(2-hydroxyethyl)-1,2,3,4-tetrahydroisoquinolin-7-yl)-7-oxo-4,5,6,7-tetrahydro-1H-pyrazolo[3,4-c]pyridine-3-carboxamide], the pIC50 was 5.00 to 5.52.
`Cc1cc(CNC(=O)c2nn(-c3cccc(Cl)c3)c3c2CCN(c2cnc4c(c2)C(=O)N(C)CC4)C3=O)nn1C` [Example 1303, 1-(3-chlorophenyl)-N-((1,5-dimethyl-1H-pyrazol-3-yl)methyl)-6-(6-methyl-5-oxo-5,6,7,8-tetrahydro-1,6-naphthyridin-3-yl)-7-oxo-4,5,6,7-tetrahydro-1H-pyrazolo[3,4-c]pyridine-3-carboxamide] gave a pIC50 of 6.00 to 6.52.
With `CN1C(=O)C(C)(C)c2ccc(N3CCc4c(C(=O)NCC5CC5)nn(-c5cccc(Cl)c5)c4C3=O)cc21` [Example 1277, 1-(3-chlorophenyl)-N-(cyclopropylmethyl)-7-oxo-6-(1,3,3-trimethyl-2-oxoindolin-6-yl)-4,5,6,7-tetrahydro-1H-pyrazolo[3,4-c]pyridine-3-carboxamide] the pIC50 was 4.40 to 5.00.
In the case of `O=C(NCc1ccccc1)c1nn(-c2cccc(Cl)c2)c2c1CCN(c1ccc3c(c1)CN(CCO)CC3)C2=O` [Example 1107, N-benzyl-1-(3-chlorophenyl)-6-(2-(2-hydroxyethyl)-1,2,3,4-tetrahydroisoquinolin-7-yl)-7-oxo-4,5,6,7-tetrahydro-1H-pyrazolo[3,4-c]pyridine-3-carboxamide], the pIC50 was 7.00 to 8.00.
In the case of `CCN1CCc2cc(C)c(N3CCc4c(C(=O)NCC5CC5)nn(-c5cccc(Cl)c5)c4C3=O)cc2C1` [Example 1054, 1-(3-Chlorophenyl)-N-(cyclopropylmethyl)-6-(2-ethyl-6-methyl-1,2,3,4-tetrahydroisoquinolin-7-yl)-7-oxo-4,5,6,7-tetrahydro-1H-pyrazolo[3,4-c]pyridine-3-carboxamide], the pIC50 was 6.52 to 7.00.
For `O=C(NCC1CC1)c1nn(-c2cccc(Cl)c2)c2c1CCN(c1cccc(C(=O)N3CCCC3)c1)C2=O` [Example 1263, 1-(3-chlorophenyl)-N-(cyclopropylmethyl)-7-oxo-6-(3-(pyrrolidine-1-carbonyl)phenyl)-4,5,6,7-tetrahydro-1H-pyrazolo[3,4-c]pyridine-3-carboxamide], the pIC50 was 4.40 to 5.00.
`CN(C)C(=O)c1cc(N2CCc3c(C(=O)NCC4CC4)nn(-c4cccc(Cl)c4)c3C2=O)ccn1` [Example 1278, 1-(3-chlorophenyl)-N-(cyclopropylmethyl)-6-(2-(dimethylcarbamoyl)pyridin-4-yl)-7-oxo-4,5,6,7-tetrahydro-1H-pyrazolo[3,4-c]pyridine-3-carboxamide] showed a pIC50 of 5.00 to 5.52.
With `Cc1cnccc1CNC(=O)c1nn(-c2cccc(Cl)c2)c2c1CCN(c1ccc3c(c1)CN(CCO)CC3)C2=O` [Example 1163, 1-(3-chlorophenyl)-6-(2-(2-hydroxyethyl)-1,2,3,4-tetrahydroisoquinolin-7-yl)-N-((3-methylpyridin-4-yl)methyl)-7-oxo-4,5,6,7-tetrahydro-1H-pyrazolo[3,4-c]pyridine-3-carboxamide] the pIC50 was 7.00 to 8.00.
`CC1CCN(Cc2cccc(N3CCc4c(C(=O)NCc5ccccc5)nn(-c5cccc(Cl)c5)c4C3=O)c2)C1` (centres unmarked) [Example 1038, N-benzyl-1-(3-chlorophenyl)-6-(3-((3-methylpyrrolidin-1-yl)methyl)phenyl)-7-oxo-4,5,6,7-tetrahydro-1H-pyrazolo[3,4-c]pyridine-3-carboxamide] was tested, and the pIC50 was 6.00 to 6.52.
Work on `CCN(CC)C(=O)c1cccc(N2CCc3c(C(=O)NCC4CC4)nn(-c4cccc(Cl)c4)c3C2=O)c1` [Example 1286, 1-(3-chlorophenyl)-N-(cyclopropylmethyl)-6-(3-(diethylcarbamoyl)phenyl)-7-oxo-4,5,6,7-tetrahydro-1H-pyrazolo[3,4-c]pyridine-3-carboxamide] yielded a pIC50 of 4.40 to 5.00.
Molecule `CN1CCc2ccc(N3CCc4c(C(=O)O)nn(-c5cccc(Cl)c5)c4C3=O)cc2C1=O` [Example 1182, 1-(3-chlorophenyl)-6-(2-methyl-1-oxo-1,2,3,4-tetrahydroisoquinolin-7-yl)-7-oxo-4,5,6,7-tetrahydro-1H-pyrazolo[3,4-c]pyridine-3-carboxylic acid] has a pIC50 of 5.00 to 5.52.
`CN(C)C(=O)c1cncc(N2CCc3c(C(=O)NCC4CC4)nn(-c4cccc(Cl)c4)c3C2=O)c1` [Example 1279, 1-(3-chlorophenyl)-N-(cyclopropylmethyl)-6-(5-(dimethylcarbamoyl)pyridin-3-yl)-7-oxo-4,5,6,7-tetrahydro-1H-pyrazolo[3,4-c]pyridine-3-carboxamide] showed a pIC50 of 4.40 to 5.00.
